Kd, Ki and IC50 data for 4 molecules are collected here from paper PMC6198510, “Switching Between Bicyclic and Linear Peptides — The Sulfhydryl-Specific Linker TPSMB Enables Reversible Cyclization of Peptides” (Frontiers in Chemistry, 2018).

In experiment [1] the target is T1, JNK3 (Homo sapiens, UniProt P53779).
T1 construct: 39-402 was performed as described in literature; made in house
Kind of experiment: direct titration fluorescence polarization assay. The class given is binding. The conditions noted are these: direct titration FP. On the procedure:
(§1) VII: Expression and Purification of JNK3
(§2) The expression and purification of JNK3339-402 was performed as described in literature. [Lange, A.; Günther, M.; Büttner, F. M.; Zimmermann, M. O.; Heidrich, J.; Hennig, S.; Zahn, S.; Schall, C.; Sievers-Engler, A.; Ansideri, F.; et al. Targeting the Gatekeeper MET146 of C-Jun N-Terminal Kinase 3 Induces a Bivalent Halogen/Chalcogen Bond. Journal of the American Chemical Society 2015, 137
(§3) VIII: Fluorescence polarization assay
Fluorescence polarization assays were performed in 96-wellplates (black, non-binding, Greiner bio-one). The measurements were performed in a CLARIOstar microplate reader (BMG Labtech, Ortenberg, Germany; excit. filter: 480 nm and an emiss. filter: 530 nm). Purified JNK3 was diluted in buffer (HEPES-Buffer, 25 mM) containing additional 0.1 mg/mL BSA. In the case of direct binding fluorescence polarization experiments, each protein concentration with a maximum concentration between 5 μM and 200 μM and a minimum concentration between 0.08 nM – 0.76 nM was measured in triplicates. The KD was obtained by curve fit based on eleven protein concentrations. […]
(§4) For all experiments DMSO (>99.5% (GC)) was […]
(§5) consistently used with a steady concentration of 5% (v/v). Before each measurement, the plates were shaked at 350 rpm for 30 min at room temperature on a plate shaker (Eppendorf MixMate). Before the measurement, the plates were incubated within the microplate reader for 2 min at 25°C and the focal height was adjusted to yield the optimal fluorescence intensity. Measured data was plotted and KD values were obtained by curve fitting of a standard four parameter logistic nonlinear regression model using the program Origin 9.1.
IX: Fluorescence polarization data
Table S2: Overview of the results obtained in direct titration fluorescence polarization assays.
SE = standard error from curve fit, SD = standard deviation from experiments 1-3. […]
Nucleic Acids Research, 37(Web Server issue), W441–W445], SE = standard error from curve fit. […]

Experiment [2] has as its target T1, JNK3. Nature of the experiment: competitive fluorescence polarization assay (displacement of PIT0105006). The format is binding. The conditions noted are these: competitive FP. How it is done:
as §1, §2, §3
Fluorescence polarization assays were performed in 96-wellplates (black, non-binding, Greiner bio-one). The measurements were performed in a CLARIOstar microplate reader (BMG Labtech, Ortenberg, Germany; excit. filter: 480 nm and an emiss. filter: 530 nm). Purified JNK3 was diluted in buffer (HEPES-Buffer, 25 mM) containing additional 0.1 mg/mL BSA. […]
The KD was obtained by curve fit based on eleven protein concentrations. For competitive binding fluorescence polarization experiments, sample concentrations between 200 μM and 10 nM were measured in triplicates. A steady concentration of 10 nM was used for JNK3 and of 5 nM for the fluorescein-labelled compound PIT0105006 (KD= 3.0 ± 0.2 nM). [Ansideri, F.; Lange, A; El-Gokha […]
A.; Boeckler F. M.; Koch, P. Fluorescence polarization-based assays for detecting compounds binding […]
503, 28-40.]Control measurements were performed with PIT0104002 (concentration between 10 μM […]
as §4, §5
IX: Fluorescence polarization data […]
Table S3: Overview of the results obtained in competitive fluorescence polarization assays. a Conversion of obtained IC50 mean values to KI were performed using a web-based application available at: http://sw16.im.med.umich.edu/software/calc_ki/ (19.07.2018) [Cer, R. Z., Mudunuri, U., Stephens, R., & Lebeda, F. J. (2009). IC50-to-Ki: a web-based tool for converting IC50 to Ki values for inhibitors of enzyme activity and ligand binding. Nucleic Acids Research, 37(Web Server issue), W441–W445], SE = standard error from curve fit. […]

Setting [3] is: fluorescein-labeled TPSMB-modified bicyclic peptide, JNK3 titrated, eleven protein concentrations in triplicates, 25 mM HEPES, 0.1 mg/mL BSA, 5% DMSO, 25°C, mean of experiments 1-3 (JK16, JK18: one experiment), read-out: Mean KD.
Setting [4] is: converted from mean IC50 with web-based IC50-to-Ki tool, read-out: KI.
[5] abbreviates: unlabeled TPSMB bicyclic peptide, mean of experiments 1-2 (JK20: one experiment), read-out: Mean IC50.
The mark [6] stands for this setting: unlabeled TPSMB bicyclic peptide displacing 5 nM PIT0105006 from 10 nM JNK3, 200 μM-10 nM in triplicates, 5% DMSO, 25°C, experiment 1, read-out: IC50 Exp. 1.

Read-outs that look alike come from different tables or passages of the source. Starred links: 1 amine or outer side, 2 acyl side, 3 side chain; linkers in the order of their positions; H or OH if unused. Positions of bridges follow the written chain, without caps; N, C: chain ends. Residues, ends and D or L forms follow the SMILES beside them. Benzene(1,3,5-(CH2S)3) = c1c(CS[*:1])cc(CS[*:3])cc1CS[*:2]

T1 sequence (P53779 39-402 limits assumed): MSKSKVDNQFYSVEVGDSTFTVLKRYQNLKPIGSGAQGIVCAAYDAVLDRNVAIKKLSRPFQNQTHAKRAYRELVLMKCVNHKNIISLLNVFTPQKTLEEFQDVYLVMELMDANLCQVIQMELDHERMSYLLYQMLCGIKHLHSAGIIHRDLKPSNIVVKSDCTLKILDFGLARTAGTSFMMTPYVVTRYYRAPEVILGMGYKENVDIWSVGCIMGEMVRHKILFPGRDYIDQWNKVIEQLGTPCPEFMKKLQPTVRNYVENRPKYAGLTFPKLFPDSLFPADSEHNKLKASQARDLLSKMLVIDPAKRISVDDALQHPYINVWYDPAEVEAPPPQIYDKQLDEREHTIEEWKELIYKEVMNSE

As a reminder, the Kd is the concentration at which binding is half-saturated. For orientation: Ki means the equilibrium dissociation constant of an inhibitor or competing ligand from its target. As usually defined, the IC50 is the concentration that gives 50% inhibition. `CSCC[C@H](NC(=O)[C@H](CS)NC(=O)[C@H](Cc1ccc(O)cc1)NC(=O)[C@H](CCC(=O)O)NC(=O)[C@H](Cc1c[nH]c2ccccc12)NC(=O)[C@H](CCC(N)=O)NC(=O)[C@H](CC(=O)O)NC(=O)[C@H](CC(=O)O)NC(=O)[C@H](CS)NC(=O)[C@H](C)N)C(=O)N[C@@H](Cc1ccccc1)C(=O)N[C@@H](CC(=O)O)C(=O)N[C@@H](Cc1ccc(O)cc1)C(=O)N[C@@H](CCCNC(=N)N)C(=O)N[C@@H](Cc1c[nH]c2ccccc12)C(=O)N[C@@H](CS)C(=O)NCC(N)=O` [JK1] (H-ACDDQWEYCMFDYRWCG-NH2): the equilibrium dissociation constant (Kd) was 1.7 ± 0.8 µM on JNK3 [1] (setting [3]) and approximately 390 µM at JNK3 [1] (fluorescein-labeled unmodified linear peptide, without cyclisation by TPSMB, curve fit (SE: 250 μM), read-out: KD of linear peptide). Besides, the Ki at JNK3 [2] (setting [4]) was found to be 6.6 µM. The half-inhibitory concentration (IC50) on JNK3 [2] (setting [5]) came out at 28.4 µM.

`CC[C@H](C)[C@@H]1NC(=O)[C@H](CCC(=O)O)NC(=O)[C@H](CC(=O)O)NC(=O)[C@H](Cc2c[nH]cn2)NC(=O)[C@@H](NC(=O)[C@H](C)N)CSSCc2cc3cc(c2)CSSC[C@H](NC(=O)[C@H]([C@@H](C)O)NC(=O)[C@H](Cc2c[nH]c4ccccc24)NC1=O)C(=O)N[C@@H](C(C)C)C(=O)N[C@@H](Cc1ccccc1)C(=O)N[C@@H](Cc1c[nH]cn1)C(=O)N[C@@H](CC(=O)O)C(=O)N[C@@H](CCC(=O)O)C(=O)N[C@@H](Cc1ccccc1)C(=O)N[C@H](C(=O)NCC(N)=O)CSSC3` [JK20-TPSMB] (H-ACHDEIWTCVFHDEFCG-NH2; linker 2-9-16 via Benzene(1,3,5-(CH2S)3)): the Ki on JNK3 [2] (setting [4]) is 6.5 µM. The half-maximal inhibitory concentration (IC50) at JNK3 [2] (setting [6]) and at JNK3 [2] (setting [5]) was 27.8 µM each time.

In the case of `CC(C)C[C@@H]1NC(=O)[C@H](CC(=O)O)NC(=O)[C@H](CCC(=O)O)NC(=O)[C@@H]2CSSCc3cc(cc(c3)CSSC[C@@H](C(=O)NCC(N)=O)NC(=O)[C@H](CC(=O)O)NC(=O)[C@H](CC(=O)O)NC(=O)[C@H](CC(N)=O)NC1=O)CSSC[C@H](NC(=O)[C@H](C)N)C(=O)N[C@@H](Cc1ccccc1)C(=O)N[C@@H](Cc1c[nH]c3ccccc13)C(=O)N[C@@H](Cc1c[nH]c3ccccc13)C(=O)N[C@@H](Cc1ccccc1)C(=O)NCC(=O)N[C@@H](C)C(=O)N2` [JK10-TPSMB] (H-ACFWWFGACEDLNDDCG-NH2; linker 2-9-16 via Benzene(1,3,5-(CH2S)3)), the Ki at JNK3 [2] (setting [4]) was 5.5 µM. Besides, the IC50 at JNK3 [2] (setting [5]) amounted to 23.6 µM.

With `CSCC[C@@H]1NC(=O)[C@@H]2CSSCc3cc(cc(c3)CSSC[C@@H](C(=O)NCC(N)=O)NC(=O)[C@H](Cc3c[nH]c4ccccc34)NC(=O)[C@H](CCCNC(=N)N)NC(=O)[C@H](Cc3ccc(O)cc3)NC(=O)[C@H](CC(=O)O)NC(=O)[C@H](Cc3ccccc3)NC1=O)CSSC[C@H](NC(=O)[C@H](C)N)C(=O)N[C@@H](CC(=O)O)C(=O)N[C@@H](CC(=O)O)C(=O)N[C@@H](CCC(N)=O)C(=O)N[C@@H](Cc1c[nH]c3ccccc13)C(=O)N[C@@H](CCC(=O)O)C(=O)N[C@@H](Cc1ccc(O)cc1)C(=O)N2` [JK1-TPSMB] (H-ACDDQWEYCMFDYRWCG-NH2; linker 2-9-16 via Benzene(1,3,5-(CH2S)3)), on JNK3 [1] (setting [3]), the equilibrium dissociation constant (Kd) was determined as 1.7 ± 0.8 µM. For the same molecule, the Ki at JNK3 [2] (setting [4]) is 6.6 µM; on JNK3 [2] (single experiment with IC50 = 15.6 μM, read-out: KI (Figure 5B)), 3.6 µM. Also, the IC50 at JNK3 [2] (setting [6]) was 15.6 µM; on JNK3 [2] (unlabeled TPSMB bicyclic peptide displacing 5 nM PIT0105006 from 10 nM JNK3, experiment 2, read-out: IC50 Exp. 2), 41.3 µM.
